Like-named read-outs stand apart in the source and are kept apart here.
Tests used:
[1] = test system: S. aureus ATCC 29213; test: Inhibition of biofilm formation (crystal violet); type: cell-based; details: Staphylococcus aureus, ATCC29213, 48 h
[2] = test system: S. aureus 272123; test: Inhibition of biofilm formation (crystal violet); type: cell-based, Staphylococcus aureus; details: read-out: Biofilm Inhibition (%) ± SD
Protocol: Efflux mechanisms are one of the factors that can lead to biofilm-mediated resistance, along with slow growth and reduced penetration due to production of extracellular polysaccharides. […] Additionally, they can also modulate QS, through an influence in the transport of QS signal molecules. Thioxanthones 2–18 were tested for their potential for inhibiting biofilm formation by S. aureus ATCC 29213 and the multi-resistant S. aureus 272123. The biofilm inhibition, presented in percentage (%), was calculated based on the mean of absorbance units. Reserpine, which has previously been described as both an efflux pump inhibitor and an inhibitor of biofilm formation in Gram-positive bacteria was used as control in both strains.
The thioxanthone derivatives were tested for their ability to decrease the formation of biofilm. The bacterial strains used were the Gram-positive S. aureus […] and S. aureus 272123. The detection of the biofilm formation was carried out using the dye crystal violet (CV; 0.1% v/v). The initial inoculum was incubated in TSB overnight, and then diluted to an OD600 of 0.1. […] This meant that compound 12 was added at 50 µM, while the rest of the compounds were added at the concentration of 100 µM. The final volume in each well was 200 µL. Reserpine was used as a positive control, as it was the same compound used in the efflux pump inhibition assay and it has shown activity in the inhibition of biofilm formation in S. aureus strains. The plates were incubated at 30 °C for 48 h, with gentle stirring (100 rpm). After this incubation period, the TSB medium was discarded, and the plates were washed with tap water to remove unattached cells. Afterwards, 200 µL of a 0.1% v/v CV solution were added to the wells and incubated for 15 min at room temperature. Then, the CV solution was removed from the wells, and the plates were washed again with tap water, and 200 µL of a 70% ethanol solution was added to the wells. The biofilm formation was determined by measuring the OD600 using a Multiscan EX ELISA plate reader (Thermo Labsystems, Cheshire, WA, USA). The anti-biofilm effect of the compounds was expressed in the percentage (%) of decrease of biofilm formation.

[3] = test system: S. marcescens; test: Quorum sensing inhibition assay (pigment production); type: cell-based, Serratia marcescens AS-1; details: Serratia marcescens, read-out: Quorum Sensing Inhibition (mm) ± SD
Protocol: Concerning the QS inhibition assay, the sensor strain Chromobacterium violaceum CV026 and the AHL producer strain Sphingomonas paucimobilis Ezf 10-17 (EZF) were inoculated as parallel lines, and the AHL producers Chromobacterium violaceum wild-type 85 (wt85) and Serratia marcescens AS-1 were inoculated as a single line. The interaction between the strains and compounds 2–18 was evaluated as the reduction of pigment production, in millimeters (mm) (Table 5) with promethazine (PMZ) as a positive control.
The QS inhibitory effect of the compounds was examined on the EZF and the sensor CV026 strains, on the wt85 strain, and on S. marcescens. The method used was the parallel inoculation method, where pair combinations of the used sensor strain CV026 and the N-acyl-homoserine lactone (AHL) producing strain EZF were inoculated directly onto the LB*-A agar surface in parallel, at an approximate distance of 5 mm from each other. S. marcescens AS-1 and wt85 were inoculated as a single line. Filter paper disks (7 mm in diameter) were placed on the center of the inoculated line(s) and impregnated with 8 µL of a solution of 10 mM of the compounds. […] The agar plates were incubated at room temperature (20 °C) for 24−48 h. The QS inhibition was accessed visually, through the inhibition of pigment production. The discolored, but intact, bacterial colonies were measured with a ruler.

[4] = test system: SE03; test: Real-time ethidium bromide accumulation assay (efflux pump inhibition); type: cell-based, Salmonella enterica serovar Typhimurium SL1344; details: compounds 50 µM (compound 12 at 17 µM), CCCP 25 µM, minute 60, EB 1 µg/mL
Protocol: The relative fluorescence index (RFI) was calculated based on the means of relative fluorescence units, and theses RFIs are depicted in Table 4.
The compounds were evaluated for their ability to inhibit the efflux of EB, an efflux pump substrate, in Salmonella enterica serovar Typhimurium SE03 and S. aureus 272123 strains, through real-time fluorimetry, monitoring the intracellular accumulation of EB, an efflux pump substrate. This was determined by the automated method using a CLARIOstar Plus plate reader (BMG Labtech, Ortenberg, Germany). Reserpine and CCCP were applied at 25 µM as positive controls, and the solvent DMSO was applied at 1% v/v. The bacterial strains were incubated in an appropriate culture media (TSB–S. aureus 272123; LB-B–SE03) at 37 °C until they reached an optical density (OD) of 0.6 at 600 nm. The culture was centrifuged at 13,000× g for 3 min, and the pellet was washed and resuspended with phosphate buffered saline (PBS, pH 7.4). The suspension was centrifuged again in the same conditions and resuspended in PBS.
Then, 50 µL of this solution were transferred into a 96-well black microtiter plate (Greiner Bio-One Hungary Kft, Mosonmagyaróvár, Fertősor, Hungary), and 50 µL of bacterial suspension (OD600 = 0.6) were added to each well. The plates were placed into the CLARIOstar plate reader, and the fluorescence was monitored at excitation and emission wavelengths of 530 nm and 600 nm, respectively, every minute for one hour on a real-time basis. From the real-time data, the activity of the compounds, namely the relative fluorescence index (RFI) of the last time point (minute 60) of the EB accumulation assay, was calculated according to the following equation:(1) RFI=RFtreated−RFuntreated/RFuntreated where RFtreated is the relative fluorescence (RF) at the last time point of EB accumulation curve in the presence of the compound, and RFuntreated is the RF at the last time point of the EB accumulation curve of the untreated control, having only the solvent (DMSO) control. The accumulation curves were designed using Microsoft Excel®. The samples were tested in triplicate, and the RFI presented comes from the average of these three values. The accumulation graphs present the mean of the RF at the last time point. The standard deviation (SD) was calculated automatically and included in the RF graphs.

[5] = S. aureus ATCC 29213, compounds 100 µM (compound 12 at 50 µM), read-out: Biofilm Inhibition (%) ± SD
[6] = Staphylococcus aureus, S. aureus 272123, compounds 100 µM (compound 12 at 50 µM), 48 h

SMILES | inhibition at 100 µM [1, 5] [%] | inhibition at 100 µM [2, 6] [%] | zone of inhibition at 10000 µM [3] [mm] | RFI ± SD [4] | inhibition at 100 µM ([1]; read-out: Biofilm Inhibition (%) ± SD, S. aureus ATCC 29213, compounds 100 µM (compound 12 at 50 µM)) [%] | inhibition at 100 µM ([2]; Staphylococcus aureus, 272123, 48 h) [%]
CCCOc1ccc(NCCN(CC)CC)c2c(=O)c3ccccc3sc12 [Compound 2] | 0.53 ± 1.05 | 81.1 ± 1.18 | 0 | −0.02 ± 0.04 |  | 
CCCOc1ccc(N2CCCCC2)c2c(=O)c3ccccc3sc12 [Compound 3] |  |  | 0 | 0.67 ± 0.01 | > 90 | 93.49 ± 0.33
CCCOc1ccc(Nc2nc(C)cc(C)n2)c2c(=O)c3ccccc3sc12 [Compound 8, 1-[(4,6-Dimethylpyrimidin-2-yl)amino]-4-propoxy-9H-thioxanthen-9-one] | 0 | 0 | 0 | 0.74 ± 0.08 |  | 
CCCOc1ccc(N2CCNC(=O)C2)c2c(=O)c3ccccc3sc12 [Compound 9, 4-(9-Oxo-4-propoxy-9H-thioxanthen-1-yl)piperazin-2-one] | 5.18 ± 1.02 | 31.5 ± 8.99 | 0 | 1.54 ± 0.09 |  | 
CCCOc1ccc(NCCO)c2c(=O)c3ccccc3sc12 [Compound 10, 1-[(2-Hydroxyethyl)amino]-4-propoxy-9H-thioxanthen-9-one] | 0 | 55.2 ± 4.2 | 0 | 6.00 ± 0.80 |  | 
CCCOc1ccc(NCCN2CCOCC2)c2c(=O)c3ccccc3sc12 [Compound 11, 1-[(2-Morpholinoethyl)amino]-4-propoxy-9H-thioxanthen-9-one] | 0 | 20.2 ± 4 | 31 ± 0.8 | 1.37 ± 0.054 |  | 
CCCOc1ccc(NS(=O)(=O)c2ccc(C(=O)O)cc2)c2c(=O)c3ccccc3sc12 [Compound 12, 4-[N-(9-Oxo-4-propoxy-9H-thioxanthen-1-yl)sulfamoyl]benzoic acid] | ~53 |  | 0 | −0.21 ± 0.07 |  | 
CCCOc1ccc(NS(=O)(=O)c2ccc(N)cc2)c2c(=O)c3ccccc3sc12 [Compound 13, 4-Amino-N-(9-oxo-4-propoxy-9H-thioxanthen-1-yl)benzenesulfonamide] | 0.42 ± 1.36 | 72 ± 6.66 | 0 | 1.23 ± 0.18 |  | 
CCCOc1ccc(Br)c2c(=O)c3ccccc3sc12 [Compound 14, 1-Bromo-4-propoxy-9H-thioxanthen-9-one] | 0 | 2.46 ± 0.72 | 0 | 0.87 ± 0.11 |  | 
CCCOc1ccc2ncnc3c2c1Sc1ccccc1-3 [Compound 15] | 0 | 76 ± 2.06 | 32 ± 0.5 | 0.54 ± 0.11 |  | 
CCCOc1ccc2nc(N)nc3c2c1Sc1ccccc1-3 [Compound 16] | 0 | 73.6 ± 1.8 | 0 | 7.52 ± 0.01 |  | 
CCCOc1ccc2nc(NCc3ccccc3Cl)nc3c2c1Sc1ccccc1-3 [Compound 17] | 0 | 6.32 ± 4.32 | 0 | 25.51 ± 2.93 |  | 
CCCOc1ccc2c3c(n/c(=N\c4ccccc4C)n2-c2ccccc2C)-c2ccccc2Sc13 [Compound 18] | 19.7 ± 7.46 | 1.62 ± 2.43 | 0 | 0.20 ± 0.02 |  | 

From PMC8232621, “Antimicrobial Activity of a Library of Thioxanthones and Their Potential as Efflux Pump Inhibitors” (Pharmaceuticals, 2021)
